Source: US5254589A, “Sulfonyl urea and carbamate ACAT inhibitors” (priority 1991, dated 1993)

Key:
[1] = target: T1, acyl-CoA:cholesterol acyltransferase (ACAT) (Oryctolagus cuniculus, UniProt G1SFD9); assay: In vitro ACAT inhibition (IAI): formation of radiolabeled cholesterol oleate from radiolabeled oleic acid in rabbit intestinal microsomes; type: biochemical; details: inhibition of acylation of cholesterol by oleic acid
T1 construct: in a tissue preparation containing rabbit intestinal microsomes; from tissue; host or cells: rabbit intestine, microsomes
T1 sequence (G1SFD9 1-524): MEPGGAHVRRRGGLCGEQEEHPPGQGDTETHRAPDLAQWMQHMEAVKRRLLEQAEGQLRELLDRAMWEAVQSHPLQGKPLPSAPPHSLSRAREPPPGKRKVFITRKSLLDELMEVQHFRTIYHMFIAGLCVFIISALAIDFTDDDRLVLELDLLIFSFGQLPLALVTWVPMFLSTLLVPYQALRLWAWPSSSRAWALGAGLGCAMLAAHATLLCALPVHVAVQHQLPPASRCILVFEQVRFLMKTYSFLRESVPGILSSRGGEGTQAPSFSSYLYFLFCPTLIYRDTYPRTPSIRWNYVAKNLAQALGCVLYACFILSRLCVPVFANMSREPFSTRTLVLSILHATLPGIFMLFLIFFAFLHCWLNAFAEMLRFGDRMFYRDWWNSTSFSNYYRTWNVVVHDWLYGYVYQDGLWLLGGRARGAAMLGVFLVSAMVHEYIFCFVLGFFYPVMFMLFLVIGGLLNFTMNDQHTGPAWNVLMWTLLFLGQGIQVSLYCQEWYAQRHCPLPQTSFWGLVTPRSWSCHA
Description: As shown by the data presented below in Table 1, the compounds of the present invention are potent inhibitors of the enzyme acyl-CoA:cholesterolacyltransferase (ACAT), and are thus effective in inhibiting the esterification and transport of cholesterol across the intestinal cell wall. The compounds of the present invention are thus useful in pharmaceutical formulations for the treatment of hypercholesterolemia or atherosclerosis. The ability of representative compounds of the present invention to inhibit ACAT was measured using an in vitro test more fully described in F. J. Field and R. G. Salone, Biochemica et Biophysica 712:557-570 (1982). The test assesses the ability of a test compound to inhibit the acylation of cholesterol by oleic acid by measuring the amount of radiolabeled cholesterol oleate formed from radiolabeled oleic acid in a tissue preparation containing rabbit intestinal microsomes.

[2] = In vivo screen APCC: blood cholesterol in rats fed a high fat, high cholesterol diet with 0.5% cholic acid; set-up: species or system male Sprague-Dawley rats; details: 16 h, rat, 30 mg/kg unless otherwise noted, dosed at 4 PM, high cholesterol diet overnight, blood sampled at 8 AM, read-out: APCC (% .increment.TC)
Description: In one in vivo screen designated APCC, male Sprague-Dawley rats (200 to 225 g) were randomly divided into treatment groups and dosed at 4 PM with either vehicle (CMC/Tween) or suspensions of compounds in vehicle. The normal chow diet was then replaced with a high fat, high cholesterol diet with 0.5% cholic acid. The rats consumed this diet ad libitum during the night and were sacrificed at 8 AM to obtain blood samples for cholesterol analysis using standard procedures. Statistical differences between mean cholesterol values for the same vehicle were determined using analysis of variance followed by Fisher's least significant test. The compounds were dosed at 30 mg/kg unless otherwise noted.

Structure (SMILES)	IC50 [1] [nM]	change in vivo at 30 mg/kg [2] [%]
CCCCCCCCCCCCCC(c1ccccc1)S(=O)(=O)NC(=O)Nc1c(C(C)C)cccc1C(C)C (stereo not shown) [Example 14, N-[2,6-Bis(1-methylethyl)phenyl]-N'-(1-phenyl-1-tetradecylsulfonyl)urea]	2000	-72
CCCCCCCCC(c1ccccc1)S(=O)(=O)NC(=O)Nc1c(C(C)C)cccc1C(C)C (stereo not shown) [Example 15, N-[2,6-Bis(1-methylethyl)phenyl]-N'-(1-phenyl-1-nonylsulfonyl)urea]	9200	-75
CCCCCCCCCCCCCCS(=O)(=O)N(Cc1ccccc1)C(=O)Nc1c(C(C)C)cccc1C(C)C [Example 4]	510	
CCCCCCCCCCCCS(=O)(=O)NC(=O)Nc1c(C(C)C)cccc1C(C)C [Example 6, N-[2,6-Bis(1-methylethyl)phenyl]-N'-(dodecylsulfonyl)urea]	1190	-63
CCCCCCCCCCCCCCS(=O)(=O)N(C)C(=O)Nc1c(C(C)C)cccc1C(C)C [Example 3, N-[2,6-Bis(1-methylethyl)phenyl]-N'-methyl-N'-(tetradecylsulfonyl)urea]	> 5000	-34

The next lines start with results.

IC50 [1] [nM]	Structure (SMILES)	change in vivo at 30 mg/kg [2] [%]
86	CCCCCCCCCCCCS(=O)(=O)N(C)C(=O)Nc1c(C(C)C)cccc1C(C)C [Example 11]	-49
13000	CCCCCCCCCCS(=O)(=O)NC(=O)Nc1c(C(C)C)cccc1C(C)C [Example 8, N-[2,6-Bis(1-methylethyl)phenyl]-N'-(decylsulfonyl)urea]	-31
1270	CCCCCCCCCCCCCCCCS(=O)(=O)NC(=O)Nc1c(C(C)C)cccc1C(C)C [Example 7, N-[2,6-Bis(1-methylethyl)phenyl]-N'-(hexadecylsulfonyl)urea]	-64
830	CCCCCCCCCCCCCCS(=O)(=O)NC(=O)Nc1c(C(C)C)cccc1C(C)C [Example 2, N-[2,6-Bis(1-methylethyl)phenyl]-N'-(tetradecylsulfonyl)urea]	-56
> 5000	CCCCCCCCS(=O)(=O)NC(=O)Nc1c(C(C)C)cccc1C(C)C [Example 5, N-[2,6-Bis(1-methylethyl)phenyl]-N'-(octylsulfonyl)urea]	
1020	CCCCCCCCCCCCCC(C)S(=O)(=O)NC(=O)Nc1c(C(C)C)cccc1C(C)C (stereo not shown) [Example 1, N-[2,6-Bis(1-methylethyl)phenyl]-N'-(2-pentadecylsulfonyl)urea]	-76
5000	CCCCCCCCCCCCCCS(=O)(=O)NC(=O)Nc1ccc(F)cc1F [Example 10, N-(2,4-Difluorophenyl)-N'-(tetradecylsulfonyl)urea]	-14
